ChEMBL document CHEMBL3259703, “Synthesis and preliminary biological evaluation of 1,2,3-triazole-Jaspine B hybrids as potential cytotoxic agents” (Eur J Med Chem, 2014)

Legend:
[1] = test system: MCF7; assay: Induction of apoptosis in human MCF7 cells assessed as late apoptotic cells at 8 uM after 16 hrs using Annexin V/PI double staining by flow cytometry (reference value: 0.7 %); type: functional
[2] = test system: MCF7; assay: Induction of apoptosis in human MCF7 cells assessed as necrotic cells at 8 uM after 16 hrs using Annexin V/PI double staining by flow cytometry (reference value: 0.7 %); type: functional
[3] = test system: MCF7; assay: Cell cycle arrest in human MCF7 cells assessed as accumulation at G0/G1 phase at 2 uM after 8 hrs using propidium iodide staining by flow cytometry (reference value: 47.36 %); type: functional
[4] = test system: MCF7; assay: Cell cycle arrest in human MCF7 cells assessed as accumulation at S phase at 2 uM after 8 hrs using propidium iodide staining by flow cytometry (reference value: 33.03 %); type: functional
[5] = test system: MCF7; assay: Cell cycle arrest in human MCF7 cells assessed as accumulation at G2/M phase at 2 uM after 8 hrs using propidium iodide staining by flow cytometry (reference value: 19.35 %); type: functional
[6] = test system: MCF7; assay: Cell cycle arrest in human MCF7 cells assessed as accumulation at G0/G1 phase at 4 uM after 8 hrs using propidium iodide staining by flow cytometry (reference value: 47.36 %); type: functional
[7] = test system: MCF7; assay: Cell cycle arrest in human MCF7 cells assessed as accumulation at S phase at 4 uM after 8 hrs using propidium iodide staining by flow cytometry (reference value: 33.03 %); type: functional
[8] = test system: MCF7; assay: Cell cycle arrest in human MCF7 cells assessed as accumulation at G2/M phase at 4 uM after 8 hrs using propidium iodide staining by flow cytometry (reference value: 19.35 %); type: functional
[9] = test system: MCF7; assay: Cell cycle arrest in human MCF7 cells assessed as accumulation at S phase at 8 uM after 8 hrs using propidium iodide staining by flow cytometry (reference value: 33.03 %); type: functional
[10] = test system: MCF7; assay: Cell cycle arrest in human MCF7 cells assessed as accumulation at G2/M phase at 8 uM after 8 hrs using propidium iodide staining by flow cytometry (reference value: 19.35 %); type: functional
[11] = test system: MCF7; assay: Cell cycle arrest in human MCF7 cells assessed as accumulation at S phase at 2 uM after 16 hrs using propidium iodide staining by flow cytometry (reference value: 30.05 %); type: functional
[12] = test system: MCF7; assay: Cell cycle arrest in human MCF7 cells assessed as accumulation at G2/M phase at 2 uM after 16 hrs using propidium iodide staining by flow cytometry (reference value: 20.08 %); type: functional
[13] = test system: MCF7; assay: Cell cycle arrest in human MCF7 cells assessed as accumulation at G0/G1 phase at 4 uM after 16 hrs using propidium iodide staining by flow cytometry (reference value: 46.01 %); type: functional
[14] = test system: MCF7; assay: Cell cycle arrest in human MCF7 cells assessed as accumulation at G2/M phase at 4 uM after 16 hrs using propidium iodide staining by flow cytometry (reference value: 20.08 %); type: functional
[15] = test system: MCF7; assay: Cell cycle arrest in human MCF7 cells assessed as accumulation at S phase at 8 uM after 16 hrs using propidium iodide staining by flow cytometry (reference value: 30.05 %); type: functional
[16] = test system: MCF7; assay: Cell cycle arrest in human MCF7 cells assessed as accumulation at G2/M phase at 8 uM after 16 hrs using propidium iodide staining by flow cytometry (reference value: 20.08 %); type: functional
[17] = test system: MGC-803; assay: Ratio of IC50 Jaspine B to compound IC50 for human MGC803 cells after 48 hrs by MTT assay; type: functional
[18] = test system: MCF7; assay: Ratio of IC50 Jaspine B to compound IC50 for human MCF7 cells after 48 hrs by MTT assay; type: functional
[19] = Antiproliferative activity against human EC9706 cells after 48 hrs by MTT assay; type: functional, cell-based; settings: EC9706, 48 h
[20] = test system: MGC-803; assay: Antiproliferative activity against human MGC803 cells after 48 hrs by MTT assay; type: functional, cell-based; settings: MGC-803, 48 h
[21] = test system: MCF7; assay: Antiproliferative activity against human MCF7 cells after 48 hrs by MTT assay; type: functional, cell-based; settings: MCF7, 48 h
[22] = test system: MCF7; assay: Induction of apoptosis in human MCF7 cells assessed as early apoptotic cells at 2 uM after 8 hrs using Annexin V/PI double staining by flow cytometry (reference value: 8.2 %); type: functional
[23] = test system: MCF7; assay: Induction of apoptosis in human MCF7 cells assessed as late apoptotic cells at 2 uM after 8 hrs using Annexin V/PI double staining by flow cytometry (reference value: 6.8 %); type: functional
[24] = test system: MCF7; assay: Induction of apoptosis in human MCF7 cells assessed as necrotic cells at 2 uM after 8 hrs using Annexin V/PI double staining by flow cytometry (reference value: 0.6 %); type: functional
[25] = test system: MCF7; assay: Induction of apoptosis in human MCF7 cells assessed as early apoptotic cells at 4 uM after 8 hrs using Annexin V/PI double staining by flow cytometry (reference value: 8.2 %); type: functional
[26] = test system: MCF7; assay: Induction of apoptosis in human MCF7 cells assessed as late apoptotic cells at 4 uM after 8 hrs using Annexin V/PI double staining by flow cytometry (reference value: 6.8 %); type: functional
[27] = test system: MCF7; assay: Induction of apoptosis in human MCF7 cells assessed as necrotic cells at 4 uM after 8 hrs using Annexin V/PI double staining by flow cytometry (reference value: 0.6 %); type: functional
[28] = test system: MCF7; assay: Induction of apoptosis in human MCF7 cells assessed as viable cells at 8 uM after 8 hrs using Annexin V/PI double staining by flow cytometry (reference value: 84.3 %); type: functional; settings: MCF7, 8 h, read-out: Activity
[29] = test system: MCF7; assay: Induction of apoptosis in human MCF7 cells assessed as early apoptotic cells at 8 uM after 8 hrs using Annexin V/PI double staining by flow cytometry (reference value: 8.2 %); type: functional
[30] = test system: MCF7; assay: Induction of apoptosis in human MCF7 cells assessed as necrotic cells at 8 uM after 8 hrs using Annexin V/PI double staining by flow cytometry (reference value: 0.6 %); type: functional
[31] = test system: MCF7; assay: Induction of apoptosis in human MCF7 cells assessed as viable cells at 2 uM after 16 hrs using Annexin V/PI double staining by flow cytometry (reference value: 87.5 %); type: functional; settings: MCF7, 16 h, read-out: Activity
[32] = test system: MCF7; assay: Induction of apoptosis in human MCF7 cells assessed as early apoptotic cells at 2 uM after 16 hrs using Annexin V/PI double staining by flow cytometry (reference value: 11.1 %); type: functional
[33] = test system: MCF7; assay: Induction of apoptosis in human MCF7 cells assessed as necrotic cells at 2 uM after 16 hrs using Annexin V/PI double staining by flow cytometry (reference value: 0.7 %); type: functional
[34] = test system: MCF7; assay: Induction of apoptosis in human MCF7 cells assessed as viable cells at 4 uM after 16 hrs using Annexin V/PI double staining by flow cytometry (reference value: 87.5 %); type: functional; settings: MCF7, 16 h, read-out: Activity
[35] = test system: MCF7; assay: Induction of apoptosis in human MCF7 cells assessed as early apoptotic cells at 4 uM after 16 hrs using Annexin V/PI double staining by flow cytometry (reference value: 11.1 %); type: functional
[36] = test system: MCF7; assay: Induction of apoptosis in human MCF7 cells assessed as late apoptotic cells at 4 uM after 16 hrs using Annexin V/PI double staining by flow cytometry (reference value: 0.7 %); type: functional
[37] = test system: MCF7; assay: Induction of apoptosis in human MCF7 cells assessed as necrotic cells at 4 uM after 16 hrs using Annexin V/PI double staining by flow cytometry (reference value: 0.7 %); type: functional

## CCCCCCCCCCCCCCCCCCn1cc(COC[C@@H]2OC[C@H](N)[C@H]2O)nn1
[1]
  Activity: 12.5%
[2]
  Activity: 5.5%
[3]
  Activity: 42.27%
[4]
  Activity: 29.66%
[5]
  Activity: 27.97%
[6]
  Activity: 33.13%
[7]
  Activity: 28.66%
[8]
  Activity: 30.72%
[9]
  Activity: 36.69%
[10]
  Activity: 39.13%
[11]
  Activity: 20.04%
[12]
  Activity: 28.6%
[13]
  Activity: 42.05%
[14]
  Activity: 36.4%
[15]
  Activity: 23.53%
[16]
  Activity: 47.4%
[17]
  Ratio IC50: 2
[18]
  Ratio IC50: 2
[19]
  IC50: 2.29 µM
[20]
  IC50: 3.11 µM
[21]
  IC50: 1.93 µM
[22]
  Activity: 12%
[23]
  Activity: 5.9%
[24]
  Activity: 1.2%
[25]
  Activity: 13.9%
[26]
  Activity: 14.1%
[27]
  Activity: 0.5%
[28]
  viability at 8 µM: 56.3%
[29]
  Activity: 23.8%
[30]
  Activity: 1.4%
[31]
  viability at 2 µM: 58.5%
[32]
  Activity: 31.4%
[33]
  Activity: 4.9%
[34]
  viability at 4 µM: 38.2%
[35]
  Activity: 45%
[36]
  Activity: 11.6%
[37]
  Activity: 5.2%
